Ends that are not written are not given here.
What was measured:
[1] = system: spleen cells (CTL response to R15K); assay: CTL activity of spleen cells after a single id footpad injection (FIG. 4)
[2] = system: HIV-1 infection of primary human T cells; assay: HIV-1 infection of primary human T cells, reverse transcriptase assay; assay type: cell-based; conditions: peptide at 1 μg/ml; IIIB strain; RT activity after 9 days; FIG. 8

Row | Sequence | CTL-inducing activity of helper T-cell peptide injected alone [1] | inhibition of HIV-1 infection of primary human T cells [2]
1 | CRIKQIINMWQGVGKAMYA [Peptide C19A] | lacked CTL-inducing activity | 
2 | RAFVTIGK [Peptide R8K] |  | 66%

— patent US7319000B1, “Compositions and methods for eliciting immune or anti-infective responses” (priority 1992, dated 2008)
